In patent publication US20130131161A1, “METHODS AND COMPOSITIONS FOR CARDIOVASCULAR DISEASES AND CONDITIONS” (priority 2009, published 2013):
Where “and” joins values, the source holds several entries; their conditions need not be identical. Identical values can stand only once.

Test system: Human umbilical vein endothelial cells (HUVECs)
Assay: eNOS activity analysis: NO, ONOO− and NO/ONOO− release from HUVECs of 50 genotyped donors in response to LA-419 (Example 2)
Assay type: cell-based
Conditions: LA-419 1 μM
Method: Concurrent measurements of NO and ONOO^− were carried out with tandem electrochemical nanosensors combined into one working unit with a total diameter of 200-500 nm (FIG. 1). Their design was based on previously developed and well-characterized chemically modified carbon-fiber technology (Malinski and Taha, 1992; Lvovich and Scheeline, 1997). Each of the nanosensors was made by depositing a sensing material on the tip of a carbon fiber (length 4-5 μm, diameter 0.2-0.5 μm). The fibers were sealed with nonconductive epoxy and electrically connected to copper wires with conductive silver epoxy. A conductive film of polymeric nickel (II) tetrakis(3-methoxy-4-hydroxyphenyl)porphyrin for the NO-sensor and polymeric film of Mn (III) [2.2]paracyclophanylporphyrin was used for the ONOO^−-sensor.
A module of NO/ONOO^− nanosensors (diameter 1-2 μm) with a platinum wire (0.1 mm) counter electrode and saturated calomel reference electrode (SCE) were applied. Differential pulse voltammetry (DPV) and amperometry were performed with a computer-based Gamry VFP600 multichannel potentiostat. DPV was used to measure the basal NO and ONOO^− concentrations, and amperometry was used to measure changes in NO and ONOO^− concentrations from its basal level with time. The DPV current at the peak potential characteristic for NO oxidation (0.65 V) and ONOO^− reduction (−0.45 V) was directly proportional to the local concentrations of these compounds in the immediate vicinity of the sensor. Linear calibration curves (current vs. concentration) were constructed for each sensor from 10 nM to 3 μM before and after measurements with aliquots of NO and ONOO^− standard solutions, respectively. The detection limit of the sensors was 1.0 nM.
The quantification of each analyte (concentration in nM) was performed using a maximum current from amperograms and standard calibration curves. A reproducibility of measurements with nanosensors is relatively high (between 5-12%). […] The sensors were slowly raised 5±2 μm from the surface of a single endothelial cell. The eNOS agonist, calcium ionophore A23187 (CaI) as well as the different drugs were then added to the surrounding media at the cell surface with a nanoinjector that was also positioned by a computer controlled-micromanipulator.
This example describes the genotype-specific response of the three major eNOS variants to 1 μM and 5 μM concentrations of LA-419. The three major genetic polymorphisms studied were the Glu298Asp variant (E298D or 894G→T) in exon 7 of […], the −786T→C variant in the promoter region, and the intron 4 polymorphism (VNTR). All of these variants have possible effects on the cardiovascular system and endothelial dysfunction. For this study, human umbilical vein endothelial cells (HUVECs) from 50 donors between 18 and 32 years of age were used.
For the analysis several analysis techniques were employed. First, the effect of genotype on NO and ONOO^− release was explored within the different concentrations of LA-419 (control, 1 μM, 5 μM), calculated as the average peak release (nmols/L) of NO, ONOO^−, and NO/ONOO^−. The effect of genotype on the net increase in NO, ONOO^−, and NO/ONOO^− for LA-419 (1 μM and 5 μM) as compared to control was also measured. In addition, an analysis was done on the effect of genotype on the % change in NO, ONOO^−, and NO/ONOO^− production for LA-419 (1 μM and 5 μM), calculated as:
% Change=[(avg. LA-419−avg. control)/(avg. control)]*100
Finally, an evaluation was undertaken concerning the effect of genotype on the production of NO, ONOO^−, and NO/ONOO^− as the fold difference of control for LA-419 (1 μM and 5 μM), calculated as:
Fold Difference=(avg. LA-419)/(avg. control)
Within each calculation technique the results were compared for statistical significance using a non-parametric ANOVA Kruskal-Wallace test or a non-parametric Mann-Whitney U test. Statistical significance was set at a p-value <0.05 in a two-tailed distribution. […]

[1] = HUVECs G894T + T-786C Combination of all genotypes other than G/G + T/T
[2] = HUVECs G894T + T-786C variant G/G + T/C
[3] = HUVECs G894T + T-786C variant G/G + T/T (Reference)
[4] = HUVECs G894T + T-786C variant G/T + C/C
[5] = HUVECs G894T + T-786C variant G/T + T/C
[6] = HUVECs G894T + T-786C variant G/T + T/T
[7] = HUVECs G894T + T-786C variant T/T + C/C
[8] = HUVECs G894T + T-786C variant T/T + T/C

CC(=O)SC1COC2C(O[N+](=O)[O-])COC12 (stereo not drawn) [LA-419, S-(6-Nitro-oxi-hexahydro-furo[3,2-b]furan-3-1-il)thioacetate]
Net increase over control NO/ONOO− (mean ± sd) [1]: −0.92 (0.90) | Net increase over control ONOO− (mean ± sd) [1]: −42.43 (111.75) nmols/L | Peak release NO (mean ± sd) [1]: 390.03 (73.13) nmols/L | Peak release NO/ONOO− (mean ± sd) [1]: 1.29 (0.46) | Peak release ONOO− (mean ± sd) [1]: 331.26 (91.43) nmols/L | Net increase over control NO (mean ± sd) [2]: 5.33 (68.90) nmols/L | Net increase over control NO/ONOO− (mean ± sd) [2]: −0.88 (0.63) | Net increase over control ONOO− (mean ± sd) [2]: 13.13 (106.46) nmols/L | Peak release NO (mean ± sd) [2]: 351.00 (88.83) nmols/L | Peak release NO/ONOO− (mean ± sd) [2]: 1.09 (0.51) | Peak release ONOO− (mean ± sd) [2]: 357.00 (94.18) nmols/L | Net increase over control NO (mean ± sd) [3]: 31.22 (71.86) nmols/L | Net increase over control NO/ONOO− (mean ± sd) [3]: 1.16 (9.12) | Net increase over control ONOO− (mean ± sd) [3]: −32.54 (86.18) nmols/L | Peak release NO (mean ± sd) [3]: 374.30 (78.06) nmols/L | Peak release NO/ONOO− (mean ± sd) [3]: 1.19 (0.43) | Peak release ONOO− (mean ± sd) [3]: 338.98 (81.16) nmols/L | Net increase over control NO (mean ± sd) [4]: −53.67 (0) nmols/L | Net increase over control NO/ONOO− (mean ± sd) [4]: −0.24 (0) | Net increase over control ONOO− (mean ± sd) [4]: 228.33 (0) nmols/L | Peak release NO (mean ± sd) [4]: 334.67 (0) nmols/L | Peak release NO/ONOO− (mean ± sd) [4]: 0.64 (0) | Peak release ONOO− (mean ± sd) [4]: 526.67 (0) nmols/L | Net increase over control NO (mean ± sd) [5]: 76.26 (75.55) nmols/L | Net increase over control NO/ONOO− (mean ± sd) [5]: −1.21 (1.06) | Net increase over control ONOO− (mean ± sd) [5]: −81.10 (79.76) nmols/L | Peak release NO (mean ± sd) [5]: 420.44 (56.87) nmols/L | Peak release NO/ONOO− (mean ± sd) [5]: 1.44 (0.32) | Peak release ONOO− (mean ± sd) [5]: 302.82 (59.66) nmols/L | Net increase over control NO (mean ± sd) [6]: 28.92 (13.00) nmols/L | Net increase over control NO/ONOO− (mean ± sd) [6]: −0.99 (1.06) | Net increase over control ONOO− (mean ± sd) [6]: −2.83 (64.48) nmols/L | Peak release NO (mean ± sd) [6]: 409.67 (64.25) nmols/L | Peak release NO/ONOO− (mean ± sd) [6]: 1.37 (0.44) | Peak release ONOO− (mean ± sd) [6]: 321.58 (90.82) nmols/L | Net increase over control NO (mean ± sd) [7]: 20.67 (16.77) nmols/L | Net increase over control NO/ONOO− (mean ± sd) [7]: −0.56 (0.56) | Net increase over control ONOO− (mean ± sd) [7]: −42.44 (9.91) nmols/L | Peak release NO (mean ± sd) [7]: 334.11 (83.36) nmols/L | Peak release NO/ONOO− (mean ± sd) [7]: 0.96 (0.58) | Peak release ONOO− (mean ± sd) [7]: 398.00 (131.00) nmols/L | Net increase over control NO (mean ± sd) [8]: 20.83 (131.76) nmols/L | Net increase over control NO/ONOO− (mean ± sd) [8]: 0.07 (0.61) | Net increase over control ONOO− (mean ± sd) [8]: −227.83 (117.62) nmols/L | Peak release NO (mean ± sd) [8]: 420.83 (4.48) nmols/L | Peak release NO/ONOO− (mean ± sd) [8]: 1.80 (0.16) | Peak release ONOO− (mean ± sd) [8]: 234.67 (23.10) nmols/L | % Change Ratio, % Change NO/% Change ONOO− (mean ± sd) (HUVECs G894T variant G/G): 0.76 (8.64) | Net increase over control NO (mean ± sd) (HUVECs G894T variant G/G): 23.26 (70.68) nmols/L and 23.26 (70.64) nmols/L | Net increase over control NO/ONOO− (mean ± sd) (HUVECs G894T variant G/G): 0.53 (7.59) | Net increase over control ONOO− (mean ± sd) (HUVECs G894T variant G/G): −18.49 (93.20) nmols/L | Peak release NO (mean ± sd) (HUVECs G894T variant G/G): 367.13 (80.46) nmols/L | Peak release NO/ONOO− (mean ± sd) (HUVECs G894T variant G/G): 1.16 (0.45) | Peak release ONOO− (mean ± sd) (HUVECs G894T variant G/G): 344.53 (83.88) nmols/L | % Change Ratio, % Change NO/% Change ONOO− (mean ± sd) (HUVECs G894T variant G/T): −1.15 (0.91) | Net increase over control NO (mean ± sd) (HUVECs G894T variant G/T): 58.52 (72.43) nmols/L | Net increase over control NO/ONOO− (mean ± sd) (HUVECs G894T variant G/T): −1.12 (1.02) | Net increase over control ONOO− (mean ± sd) (HUVECs G894T variant G/T): −46.52 (105.03) nmols/L | Peak release NO (mean ± sd) (HUVECs G894T variant G/T): 413.28 (58.46) nmols/L | Peak release NO/ONOO− (mean ± sd) (HUVECs G894T variant G/T): 1.38 (0.38) | Peak release ONOO− (mean ± sd) (HUVECs G894T variant G/T): 319.43 (81.89) nmols/L | Net increase over control NO (mean ± sd) (HUVECs G894T variant G/T & T/T): 50.30 (71.57) nmols/L | Net increase over control NO/ONOO− (mean ± sd) (HUVECs G894T variant G/T & T/T): −0.93 (0.99) | Net increase over control ONOO− (mean ± sd) (HUVECs G894T variant G/T & T/T): −61.75 (109.14) nmols/L | Peak release NO (mean ± sd) (HUVECs G894T variant G/T & T/T): 403.61 (63.52) nmols/L | Peak release NO/ONOO− (mean ± sd) (HUVECs G894T variant G/T & T/T): 1.36 (0.43) | Peak release ONOO− (mean ± sd) (HUVECs G894T variant G/T & T/T): 322.30 (90.85) nmols/L | % Change Ratio, % Change NO/% Change ONOO− (mean ± sd) (HUVECs G894T variant T/T): −0.66 (1.02) | Net increase over control NO (mean ± sd) (HUVECs G894T variant T/T): 20.73 (66.94) nmols/L | Net increase over control NO/ONOO− (mean ± sd) (HUVECs G894T variant T/T): −0.31 (0.61) | Net increase over control ONOO− (mean ± sd) (HUVECs G894T variant T/T): −116.60 (117.55) nmols/L | Peak release NO (mean ± sd) (HUVECs G894T variant T/T): 368.80 (75.73) nmols/L | Peak release NO/ONOO− (mean ± sd) (HUVECs G894T variant T/T): 1.29 (0.63) | Peak release ONOO− (mean ± sd) (HUVECs G894T variant T/T): 332.67 (129.30) nmols/L | Net increase over control NO (mean ± sd) (HUVECs Intron 4 variant a/a): −25.78 (104.49) nmols/L | Net increase over control NO/ONOO− (mean ± sd) (HUVECs Intron 4 variant a/a): −0.11 (0.56) | Net increase over control ONOO− (mean ± sd) (HUVECs Intron 4 variant a/a): 26.11 (116.99) nmols/L | Peak release NO (mean ± sd) (HUVECs Intron 4 variant a/a): 360.56 (80.60) nmols/L | Peak release NO/ONOO− (mean ± sd) (HUVECs Intron 4 variant a/a): 0.97 (0.57) | Peak release ONOO− (mean ± sd) (HUVECs Intron 4 variant a/a): 421.11 (124.25) nmols/L | Net increase over control NO (mean ± sd) (HUVECs Intron 4 variant b/a): 56.57 (67.97) nmols/L | Net increase over control NO/ONOO− (mean ± sd) (HUVECs Intron 4 variant b/a): 0.28 (0.43)
